The target of one assay is T1, FLK-1 receptor (Mus musculus, UniProt P35918).
T1 construct: expressed in transfected cells; host or cells: NIH3T3 C7#3
The experiment in a line: ELISA assay measuring the kinase activity of the FLK-1 receptor in cells engineered to express FLK-1. Type of assay: cell-based. The note with it: NIH3T3 C7#3 FLK-1 expressing cells, VEGF stimulation, phosphotyrosine ELISA. The procedure: An ELISA assay was conducted to measure the kinase activity of the FLK-1 receptor and more specifically, the inhibition or activation of TK activity on the FLK-1 receptor. Specifically, the following assay was conducted to measure kinase activity of the FLK-1 receptor in cells genetically engineered to express FLK-1.
(11) NIH3T3 C7#3 Cells (FLK-1 expressing cells);
The following protocol was used for conducting the assay:
1. Coat Corning 96-well elisa plates with 1.0 μg per well Cappel Anti-rabbit IgG antibody in 0.1 M Na2CO3 pH 9.6. Bring final volume to 150 μL per well. Coat plates overnight at 4° C. Plates can be kept up to two weeks when stored at 4° C.
2. Grow cells in Growth media (DMEM, supplemental with 2.0 mM L-Glutamine, 10% FBS) in suitable culture dishes until confluent at 37° C., 5% CO2.
3. Harvest cells by trypsinization and seed in Corning 25850 polystyrene 96-well roundbottom cell plates, 25.000 cells/well in 200 μL of growth media.
4. Grow cells at least one day at 37° C., 5% CO2.
5. Wash cells-with D-PBS 1×.
6. Add 200 μL/well of starvation media (DMEM, 2.0 mM 1-Glutamine, 0.1% FBS). Incubate overnight at 37° C., 5% CO2.
7. Dilute Compounds 1:20 in polypropylene 96 well plates using starvation media. Dilute dimethylsulfoxide 1:20 for use in control wells.
8. Remove starvation media from 96 well cell culture plates and add 162 μL of fresh starvation media to each well.
9. Add 18 μL of 1:20 diluted Compound dilution (from step 7) to each well plus the 1:20 dimethylsulfoxide dilution to the control wells (+/− VEGF), for a final dilution of 1:200 after cell stimulation. Final dimethylsulfoxide is 0.5%. Incubate the plate at 37° C., 5% CO2 for two hours.
10. Remove unbound antibody from ELISA plates by inverting plate to remove liquid. Wash 3 times with TBSW+0.5% ethanolamine, pH 7.0. Pat the plate on a paper towel to remove excess liquid and bubbles.
11. Block plates with TBSW+0.5% Ethanolamine, pH 7.0, 150 μL per well. Incubate plate thirty minutes while shaking on a microliter plate shaker.
12. Wash plate 3 times as described in step 10.
13. […] Bring final volume to 150 μL/well with TBSW+0.5% ethanolamine pH 7.0. Incubate plate for thirty minutes while shaking.
14. Add 180 μL starvation medium to the cells and stimulate cells with 20 μL/well 10.0 mM sodium ortho vanadate and 500 ng/mL VEGF (resulting in a final concentration of 1.0 mM sodium ortho vanadate and 50 ng/mL VEGF per well) for eight minutes at 37° C., 5% CO2. Negative control wells receive only starvation medium.
15. After eight minutes, media should be removed from the cells and washed one time with 200 μL/well PBS.
16. Lyse cells in 150 μL/well HNTG while shaking at room temperature for five minutes. HNTG formulation includes sodium ortho vanadate, sodium pyro phosphate and EDTA.
17. Wash ELISA plate three times as described in step 10.
18. Transfer cell lysates from the cell plate to ELISA plate and incubate while shaking for two hours. To transfer cell lysate pipette up and down while scrapping the wells.
19. Wash plate three times as described in step 10.
20. Incubate ELISA plate with 0.02 μg/well UB40 in TBSW+05% ethanolamine. Bring final volume to 150 μL/well. Incubate while shaking for 30 minutes.
21. Wash plate three times as described in step 10.
22. Incubate ELISA plate with 1:10,000 diluted EIA grade goat anti-mouse IgG conjugated horseradish peroxidase in TBSW+0.5% ethanolamine, pH 7.0. Bring final volume to 150 μL/well. Incubate while shaking for thirty minutes.
23. Wash plate as described in step 10.
24. Add 100 μL of ABTS/H2O2 solution to well. Incubate ten minutes while shaking.
25. Add 100 μL of 0.2 M HCl for 0.1 M HCl final to stop the color development reaction. Shake 1 minute at room temperature. Remove bubbles with slow stream of air and read the ELISA plate in an ELISA plate reader at 410 nm.
The IC50 values were measured for several of the compounds of the invention.

For assay [1], the system named is HUV-EC-C cells; aFGF (ECGF). Put plainly: HUVEC-aFGF 3H-thymidine incorporation assay. Type of assay: cell-based, human. The note with it: Homo sapiens.
Experimental: The following protocol is used to measure a compound's activity against VEGF and aFGF, all of which are expressed by HUVEC cells.
Repeat the wash two more times with D-PBS, resuspend the cells in about 1 mL assay medium/15 cm^2 of tissue culture flask.
Add cells to 96-well flat-bottom plates at 100 μL/well or 0.8-1.0×10^4 cells/well; incubate ˜24h at 37° C., 5% CO^2.
Use the same assay medium as mentioned in day 0, step 2 above. Titrations are made by adding 90 μL/well of drug at 200 μM (4× the final well concentration) to the top well of a particular plate column. Since the stock drug concentration is usually 20 mM in DMSO, the 200 μM drug concentration contains 2% DMSO.
Therefore, diluent made up to 2% DMSO in assay medium (F12K+0.5% fetal bovine serum) is used as diluent for the drug titrations in order to dilute the drug but keep the DMSO concentration constant. Add this diluent to the remaining wells in the column at 60 μL/well. Take 60 μL from the 120 μL of 200 μM drug dilution in the top well of the column and mix with the 60 μL in the second well of the column. Take 60 μL from this well and mix with the 60 μL in the third well of the column, and so on until two-fold titrations are completed. When the next-to-the-last well is mixed, take 60 μL of the 120 μL in this well and discard it. Leave the last well with 60 μL of DMSO/media diluent as a non-drug-containing control. Make 9 columns of titrated drug, enough for triplicate wells each for 1) VEGF (obtained from Pepro Tech Inc., catalogue no. […] ECGF comes as a preparation with sodium heparin.
Transfer 50 μL/well of the drug dilutions to the 96-well assay plates containing the 0.8-1.0×10^4 cells/100 μL/well of the HUV-EC-C cells from day 0. and incubate ˜2 h at 37° C., 5% CO2.
In triplicate, add 50 μL/well of 80 μg/mL VEGF, 20 ng/mL ECGF, or media control to each drug condition. As with the drugs, the growth factor concentrations are 4× the desired final concentration. Use the assay media from day 0 step 2 to make the concentrations of growth factors.
Freeze plates overnight at 20° C.
The test system of assay [2] is 3T3 cell line genetically engineered to express human PDGF-R. Put plainly: PDGF-induced BrdU incorporation assay. The following applies: NIH3T3; 3T3 cells expressing human PDGF-R, PDGF 3.8 nM; read-out: PDGF-Induced BrdU Incorp. IC50. The format is cell-based. The procedure: (1) PDGF: human PDGF B/B; 1276-956, Boehringer Mannheim, Germany
(8) 3T3 cell line genetically engineered to express human PDGF-R.
1. Cells were seeded at 8000 cells/well in DMEM, 10% CS, 2 mM Gln in a 96 well plate. Cells were incubated overnight at 37° C. in 5% CO2.
2. After 24 hours, the cells were washed with PBS, and then were serum starved in serum free medium (0% CS DMEM with 0.1% BSA) for 24 hours.
3. On day 3, ligand (PDGF=3.8 nM, prepared in DMEM with 0.1% BSA) and test compounds were added to the cells simultaneously. The negative control wells received serum free DMEM with 0.1% BSA only; the positive control cells received the ligand (PDGF) but no test compound. Test compounds were prepared in serum free DMEM with ligand in a 96 well plate, and serially diluted for 7 test concentrations.
4. After 20 hours of ligand activation, diluted BrdU labeling reagent (1:100 in DMEM, 0.1% BSA) was added and the cells were incubated with BrdU (final concentration=10 μM) for 1.5 hours.
5. After incubation with labeling reagent, the medium was removed by decanting and tapping the inverted plate on a paper towel. FixDenat solution was added (50 μL/well) and the plates were incubated at room temperature for 45 minutes on a plate shaker.
6. The FixDenat solution was thoroughly removed by decanting and tapping the inverted plate on a paper towel. Milk was added (5% dehydrated milk in PBS, 200 μL/well) as a blocking solution and the plate was incubated for 30 minutes at room temperature on a plate shaker.
7. The blocking solution was removed by decanting and the wells were washed once with PBS. Anti-BrdU-POD solution (1:100 dilution in PBS, 1% BSA) was added (100 μL/well), and the plate was incubated for 90 minutes at room temperature on a plate shaker.
8. The antibody conjugate was thoroughly removed by decanting and rinsing the wells 5 times with PBS, and the space was dried by inverting and tapping on a paper towel.
9. TMB substrate solution was added (100 μL/well) and incubated for 20 minutes at room temperature on a plate shaker until color development was sufficient for photometric detection.
10. The absorbance of the samples were measured at 410 nm (in “dual wavelength” mode with a filter reading at 490 nm, as a reference wavelength) on a Dynatech ELISA plate reader.
The IC50 values were measured for several of the compounds of the invention. These values are depicted in Table 10.
(Incorporation of labelled thymidine or its analogues reports DNA synthesis.)

Molecules are shown by their SMILES.

T1 sequence (P35918 20-1345): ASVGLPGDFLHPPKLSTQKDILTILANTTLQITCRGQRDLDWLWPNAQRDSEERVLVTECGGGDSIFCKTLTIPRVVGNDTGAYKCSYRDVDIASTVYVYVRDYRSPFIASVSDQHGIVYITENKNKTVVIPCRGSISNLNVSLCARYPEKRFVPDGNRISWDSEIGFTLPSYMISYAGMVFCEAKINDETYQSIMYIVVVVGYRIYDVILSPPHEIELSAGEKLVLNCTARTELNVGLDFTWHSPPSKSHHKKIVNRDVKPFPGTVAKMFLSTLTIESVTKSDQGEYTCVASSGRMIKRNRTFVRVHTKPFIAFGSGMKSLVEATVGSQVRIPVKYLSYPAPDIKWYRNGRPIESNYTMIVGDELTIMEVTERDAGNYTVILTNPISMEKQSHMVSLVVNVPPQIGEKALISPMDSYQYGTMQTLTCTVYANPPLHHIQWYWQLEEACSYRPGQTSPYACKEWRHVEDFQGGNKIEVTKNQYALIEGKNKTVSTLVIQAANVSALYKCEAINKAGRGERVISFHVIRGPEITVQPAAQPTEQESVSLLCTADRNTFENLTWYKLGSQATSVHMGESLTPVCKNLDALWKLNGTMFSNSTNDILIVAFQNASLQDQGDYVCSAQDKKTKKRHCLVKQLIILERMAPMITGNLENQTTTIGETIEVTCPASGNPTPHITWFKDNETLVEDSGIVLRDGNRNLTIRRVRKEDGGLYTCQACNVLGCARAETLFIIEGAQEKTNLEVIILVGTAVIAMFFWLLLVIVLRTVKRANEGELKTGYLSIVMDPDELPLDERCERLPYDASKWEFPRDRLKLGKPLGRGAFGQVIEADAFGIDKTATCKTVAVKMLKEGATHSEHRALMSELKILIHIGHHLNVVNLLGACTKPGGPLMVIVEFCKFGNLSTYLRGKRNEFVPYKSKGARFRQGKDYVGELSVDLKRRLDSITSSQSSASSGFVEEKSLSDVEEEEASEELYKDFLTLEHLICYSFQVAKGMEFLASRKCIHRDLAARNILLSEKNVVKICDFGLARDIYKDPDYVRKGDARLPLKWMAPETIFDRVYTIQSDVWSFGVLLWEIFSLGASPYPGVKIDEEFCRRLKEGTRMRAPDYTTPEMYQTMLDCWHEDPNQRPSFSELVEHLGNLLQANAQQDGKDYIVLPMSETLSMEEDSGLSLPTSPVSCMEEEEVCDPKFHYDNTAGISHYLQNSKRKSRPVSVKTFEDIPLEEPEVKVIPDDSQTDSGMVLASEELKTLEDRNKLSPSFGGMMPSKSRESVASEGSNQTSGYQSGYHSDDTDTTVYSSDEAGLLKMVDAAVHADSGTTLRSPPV

For orientation: IC50 means the concentration that inhibits the measured activity by half. Regarding `O=C(O)CCc1c(C=C2C(=O)Nc3ccc(Br)cc32)[nH]c2c1CCCC2` [IN-003, 3-[2-(5-Bromo-2-oxo-1,2-dihydro-indol-3-ylidenemethyl)-4,5,6,7-tetrahydro-1H-indol-3-yl]-propionic acid], the IC50 against FLK-1 receptor was determined as 29 nM; in assay [1] it was 76 nM; in assay [2], 1400 nM.

With `O=C(O)CCc1c(C=C2C(=O)Nc3ccccc32)[nH]c2c1CCCC2` [IN-001, 3-[2-(2-Oxo-1,2-dihydro-indol-3-ylidenemethyl)-4,5,6,7-tetrahydro-1H-indol-3-yl]-propionic acid], the results for the IC50 (at FLK-1 receptor; in assay [1]; in assay [2]) were 62 nM, 15.9 nM and 2900 nM, respectively.

Turning to `Cc1ccc2c(c1)C(=Cc1[nH]c3c(c1CCC(=O)O)CCCC3)C(=O)N2` [IN-005, 3-[2-(5-Methyl-2-oxo-1,2-dihydro-indol-3-ylidenemethyl)-4,5,6,7-tetrahydro-1H-indol-3-yl]-propionic acid], the IC50 is 63 nM against FLK-1 receptor, 4.4 nM in assay [1] and 14200 nM in assay [2].

Values taken from patent US20040067531A1, “Methods of modulating protein tyrosine kinase function with substituted indolinone compounds” (SUGEN, INC., priority 1997, published 2004).
